Some test systems named below: 786-0; CAKI-1; HCT-116; HOP-92; HT-29; M14; OVCAR-5; RXF 393; SK-MEL-28; SK-MEL-5; SNB-19; SR; U-251; UACC-257; CCRF-CEM; NCI-H226; NCI-H522.
Common to all, as to assay: growth of human tumour cells (NCI), 48 h

The text below walks through data of ChEMBL document CHEMBL1201862, “PubChem BioAssay data set” (2004).

Molecules are shown by their SMILES.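 Grown in 96-well plates, cells were treated for 48 hours with each compound at five concentrations. Insufficient inhibition: endpoint recorded as highest concentration tested. Here, GI50 denotes the concentration required for 50% inhibition of growth.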 Active and inactive are the calls of the source. Cut-off read from the data, not from the text of the source: active = GI50 up to about 1.1 µM and inactive = higher. A value given as a limit tells only on which side of the number the result lay.

Take `CCOc1c(Cc2ccccc2)c(=O)n2c3ccccc3n3c(=O)n(C)c(=O)c1c23`: the GI50 in the experiment on 786-0, in the experiment with CAKI-1, in the experiment with HCT-116, in the experiment with HOP-92, with HT-29 and with M14 was > 100 µM (inactive) each time. For the same compound, the GI50 in the experiment with OVCAR-5, with RXF 393, in the experiment with SK-MEL-28, in the experiment with SK-MEL-5, in the experiment on SNB-19 and with SR was > 100 µM (inactive) throughout. Besides, the GI50 with U-251 and with UACC-257 was > 100 µM (inactive) throughout.
For `C=CCNC(=S)N1c2ccccc2NC(=O)CC1C` (centres undefined), the GI50 in the experiment with 786-0, in the experiment with CCRF-CEM, in the experiment on HCT-116, in the experiment on HT-29, in the experiment with M14 and with NCI-H226 was > 100 µM (inactive) in each case. The GI50 with NCI-H522, in the experiment on OVCAR-5, in the experiment with RXF 393, in the experiment on SK-MEL-28, in the experiment with SK-MEL-5 and in the experiment on SNB-19 was > 100 µM (inactive) each time. The GI50 with SR and in the experiment with U-251 was > 100 µM (inactive) throughout.
Take `N=C(N)N/N=C(/CCN1CCCC1)CC(c1ccccc1)c1c(O)c2ccccc2oc1=O` (centres undefined): the GI50 with 786-0 was > 100 µM (inactive); in the experiment on CAKI-1 it was > 100 µM (inactive); in the experiment with CCRF-CEM it was > 10 µM (inactive); in the experiment with HCT-116 it was > 100 µM (inactive); in the experiment with HOP-92, 16.7 µM (inactive); in the experiment with HT-29, > 100 µM (inactive). For the same compound, the GI50 in the experiment on M14, with NCI-H226, with NCI-H522, with RXF 393, with SK-MEL-28 and in the experiment on SNB-19 was > 100 µM (inactive) each time. The GI50 in the experiment with UACC-257 is > 100 µM (inactive).
For the compound `CCOC(=O)/C(=C/c1ccc(OC)c(OC)c1)C(=O)c1ccccc1`, the GI50 in the experiment with 786-0 was > 100 µM (inactive); in the experiment with CAKI-1, 14.7 µM (inactive); with CCRF-CEM, 9.64 µM (inactive); with HT-29, 13.6 µM (inactive); in the experiment on M14 it was 13.9 µM (inactive); in the experiment with NCI-H522, 13.9 µM (inactive). Besides, the GI50 with OVCAR-5 is 17.5 µM (inactive); in the experiment with SK-MEL-28, 13.5 µM (inactive); with SK-MEL-5, 14.3 µM (inactive); in the experiment with SNB-19, 15.8 µM (inactive); in the experiment with U-251, 19.5 µM (inactive); in the experiment with UACC-257, 15.1 µM (inactive).
For the compound `COC(=O)NN1C(C)=C(C(=O)OC)C2(C#N)C(C(=O)OC)=C(C)N(NC(=O)OC)C12N` (centres undefined), the GI50 with 786-0, with CAKI-1, in the experiment with CCRF-CEM, in the experiment with HCT-116, in the experiment on HOP-92 and in the experiment with HT-29 was > 100 µM (inactive) throughout. The GI50 with M14, in the experiment with NCI-H226, with NCI-H522, in the experiment on OVCAR-5, in the experiment with SK-MEL-28 and in the experiment on SNB-19 was > 100 µM (inactive) throughout. Moreover, the GI50 with U-251 and in the experiment with UACC-257 was > 100 µM (inactive) in each case.
For the compound `OC[C@@H]1CC#C/C=C\C#CC[C@@H]1CO`, the GI50 in the experiment on 786-0 is > 100 µM (inactive); in the experiment with CAKI-1, > 100 µM (inactive); with HCT-116, > 100 µM (inactive); with HOP-92, < 0.01 µM (active); in the experiment with HT-29, > 100 µM (inactive); with M14 it was > 100 µM (inactive). Also, the GI50 with OVCAR-5, in the experiment with RXF 393, with SK-MEL-28, with SK-MEL-5, in the experiment on SNB-19 and in the experiment on U-251 was > 100 µM (inactive) each time.
Regarding `CCNC(=O)O/N=C1/C=C2CC[C@@H]3C(CC[C@@]4(C)C3CC[C@@H]4OC(=O)NCC)[C@@]2(C)CC1` (some centres undefined), the GI50 in the experiment on 786-0 was 3.23 µM (inactive); with CAKI-1, 4.26 µM (inactive); in the experiment on HCT-116, 3.67 µM (inactive); with HOP-92, 4.43 µM (inactive); in the experiment with HT-29, 3.27 µM (inactive); with M14 it was 2.96 µM (inactive). The GI50 in the experiment on NCI-H522 is 1.95 µM (inactive); in the experiment on OVCAR-5, 6.78 µM (inactive); in the experiment on RXF 393 it was 1.62 µM (inactive); in the experiment on SK-MEL-28, 3.32 µM (inactive); in the experiment on SK-MEL-5 it was 3.44 µM (inactive); with SNB-19 it was 2.48 µM (inactive). Moreover, the figures for the GI50 in the experiment on U-251 and in the experiment on UACC-257 were 2.42 µM (inactive) and 2.24 µM (inactive), respectively.
On to `C#CC[C@]12CC(=O)CC[C@H]1CC(=O)C2`, for which the GI50 in the experiment on 786-0, in the experiment on CAKI-1, in the experiment with CCRF-CEM, in the experiment with HCT-116, in the experiment with M14 and in the experiment with NCI-H226 was > 100 µM (inactive) in each case. Further, the GI50 in the experiment with NCI-H522, in the experiment on RXF 393, in the experiment with SK-MEL-28, in the experiment on SK-MEL-5, with SNB-19 and with SR was > 100 µM (inactive) throughout. Also, the GI50 with U-251 and in the experiment on UACC-257 was > 100 µM (inactive) throughout.
As for `Cc1[nH]c2ccccc2c1CC/C(=N\Nc1ccccc1)c1ccccc1`, the GI50 with 786-0, with CAKI-1, in the experiment on CCRF-CEM, in the experiment on HCT-116, in the experiment on HT-29 and with M14 was > 100 µM (inactive) in each case. For the same compound, the GI50 with NCI-H226, with OVCAR-5, in the experiment on RXF 393, with SK-MEL-28, in the experiment on SK-MEL-5 and in the experiment with U-251 was > 100 µM (inactive) throughout. Also, the GI50 in the experiment with UACC-257 was > 100 µM (inactive).
Turning to `Cc1ccc(Oc2ccccc2N)cc1`, the GI50 was 21.2 µM (inactive) in the experiment on 786-0; 7.03 µM (inactive) in the experiment with CCRF-CEM; 9.51 µM (inactive) in the experiment on HCT-116; 37.8 µM (inactive) in the experiment with HOP-92; 37.2 µM (inactive) with HT-29; 33.5 µM (inactive) in the experiment with M14. The GI50 was 40.6 µM (inactive) in the experiment with OVCAR-5; 25.9 µM (inactive) with RXF 393; 18.2 µM (inactive) in the experiment on SK-MEL-28; 7.89 µM (inactive) with SK-MEL-5; 78.5 µM (inactive) in the experiment on SNB-19; 9.31 µM (inactive) in the experiment with SR. Further, the values for the GI50 with U-251 and in the experiment on UACC-257 were 4.43 µM (inactive) and 52.5 µM (inactive), respectively.
